As usually defined, the EC50 is the concentration needed to bring the measured effect to its halfway point. In general, IC50 refers to the concentration needed to halve the response being measured.

The subject of test [1] is TNFα. In words: Cot Monocyte TNFα Cell Based Assay.
Test [2] has as its target Human Cot (Homo sapiens (Human), UniProt P41279). Briefly: High Throughput Cot Biochemical Assay.
Description: Human Cot enzyme activity was measured using KinEASE (Cisbio), a time-resolved fluorescence resonance energy transfer (TR-FRET) immunoassay. In this assay, Cot-catalyzes the phosporylation of a XL665-labeled peptide substrate. Europium conjugated phospho-tyrosine specific antibody binds the resulting phosphorylated peptide. Formation of phosphorylated peptide is quantified by TR-FRET with Europium as the donor and XL665 the acceptor in a 2-step endpoint assay. […] In brief, test compounds serially diluted in DMSO were delivered into Proxy white, low volume, 384 well plates using the Echo 550 acoustic liquid dispenser (Labcyte®). Cot enzyme and substrates were dispensed into assay plates using a Multi-Flo (Bio-Tek Instruments). The standard 5 μL reaction mixture contained 400 μM ATP, 1 μM STK3 peptide, 5 nM of Cot in reaction buffer (10 mM MOPS, pH 7.0, 0.02% NaN3, 0.5 mg/mL BSA, 10 mM MgOAc, 1 mM DTT, 0.025% NP-40, 1.5% glycerol) and 0.1% DMSO.
[3] abbreviates: Homo sapiens, Monocyte, read-out: EC50 TNF, LPS-stimulated human monocytes, TNFα TR-FRET.
The mark [4] stands for this setting: IC50 HTRF, Cot HTRF (TR-FRET KinEASE) biochemical assay, 400 μM ATP.
The mark [5] stands for this setting: Homo sapiens, Monocyte, read-out: EC50 TNF, LPS-stimulated human monocytes, TNFα.
[6] abbreviates: IC50 HTRF, Cot HTRF (TR-FRET) biochemical assay.
[7] abbreviates: read-out: EC50 TNF, LPS-stimulated human monocytes, TNFα TR-FRET.
[8] abbreviates: read-out: IC50 HTRF, Cot HTRF (TR-FRET KinEASE) biochemical assay, 400 μM ATP.

Where two headings read alike, the source gives them in different places.

Human Cot, sequence (P41279 30-397): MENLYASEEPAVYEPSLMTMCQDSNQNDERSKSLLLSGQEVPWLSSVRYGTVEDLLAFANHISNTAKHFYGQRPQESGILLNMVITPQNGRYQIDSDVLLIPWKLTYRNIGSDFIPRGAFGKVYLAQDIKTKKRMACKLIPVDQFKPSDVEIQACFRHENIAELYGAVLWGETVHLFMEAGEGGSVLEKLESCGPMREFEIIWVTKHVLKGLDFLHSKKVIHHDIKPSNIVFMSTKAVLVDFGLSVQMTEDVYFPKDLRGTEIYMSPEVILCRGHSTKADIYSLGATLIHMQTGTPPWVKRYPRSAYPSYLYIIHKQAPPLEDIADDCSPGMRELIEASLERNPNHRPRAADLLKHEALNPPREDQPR

Regarding `CC(C)(C)CNc1c(C#N)cnc2c(C#N)cc(N[C@H](c3cn(C4CC4)nn3)c3csc4cnccc34)cc12` [Example 856, (S)-6-(((1-cyclopropyl-1H-1,2,3-triazol-4-yl)(thieno[2,3-c]pyridin-3-yl)methyl)amino)-4-(neopentylamino)quinoline-3,8-dicarbonitrile], the EC50 in test [1] (setting [3]) was found to be 29 nM. Further, in test [2] (setting [4]), the IC50 worked out at 1 nM.
Take `Cc1nc(F)ccc1[C@H](Nc1cc(Cl)c2ncc(C#N)c(NCC34CC(C3)C4)c2c1)c1cn(C2(C(F)F)CC2)nn1` [Example 739, (S)-4-((bicyclo[1.1.1]pentan-1-ylmethyl)amino)-8-chloro-6-(((1-(1-(difluoromethyl)cyclopropyl)-1H-1,2,3-triazol-4-yl)(6-fluoro-2-methylpyridin-3-yl)methyl)amino)quinoline-3-carbonitrile]: the EC50 in test [1] (setting [5]) was 254 nM. Moreover, the IC50 in test [2] (setting [6]) is 21 nM.
Turning to `Cc1nnc(C2(n3cc([C@@H](Nc4cc(C#N)c5ncc(C#N)c(NCC(C)(C)C)c5c4)c4ccc(F)nc4C)nn3)CC2)o1` [Example 907, (S)-6-(((6-fluoro-2-methylpyridin-3-yl)(1-(1-(5-methyl-l,3,4-oxadiazol-2-yl)cyclopropyl)-1H-1,2,3-triazol-4-yl)methyl)amino)-4-(neopentylamino)quinoline-3,8-dicarbonitrile], in test [1] (setting [7]), the EC50 turned out to be 51 nM. Also, in test [2] (setting [8]), the IC50 was 4 nM.
Take `CC(C)(C)CNc1c(C#N)cnc2c(Cl)cc(N[C@H](c3cn(C4(C(F)(F)F)CC4)nn3)c3cccn4nccc34)cc12` [Example 560, (S)-8-chloro-4-(neopentylamino)-6-((pyrazolo[1,5-a]pyridin-4-yl(1-(1-(trifluoromethyl)cyclopropyl)-1H-1,2,3-triazol-4-yl)methyl)amino)quinoline-3-carbonitrile]: the EC50 in test [1] (setting [5]) amounted to 287 nM. In test [2] (setting [6]), this compound gave an IC50 of 11 nM.
Take `Cc1nc(F)ccc1[C@H](Nc1cc(Cl)c2ncc(C#N)c(NCC(C)(C)C)c2c1)c1nnn(C2CC2)c1C1CC1` [Example 946, (S)-8-chloro-6-(((1,5-dicyclopropyl-1H-1,2,3-triazol-4-yl)(6-fluoro-2-methylpyridin-3-yl)methyl)amino)-4-(neopentylamino)quinoline-3-carbonitrile]: the EC50 in test [1] (setting [3]) came to 153 nM. The same compound came in with an IC50 in test [2] (setting [4]) of 5 nM.
For the compound `CC(C)(C)CNc1c(C#N)cnc2c(Cl)cc(N[C@H](c3cn(C4CC4)nn3)c3cccc4cccnc34)cc12` [Example 450, (S)-8-chloro-6-(((1-cyclopropyl-1H-1,2,3-triazol-4-yl)(quinolin-8-yl)methyl)amino)-4-(neopentylamino)quinoline-3-carbonitrile], the EC50 in test [1] (setting [5]) is 356 nM. This compound displayed an IC50 in test [2] (setting [6]) of 20 nM.
With `[2H]C([2H])([2H])C([2H])([2H])C(Nc1c(C#N)cnc2c(Cl)cc(N[C@@]([2H])(c3ccc(F)nc3)c3cn(C4CC4)nn3)cc12)c1ccccc1` (stereo partly drawn) [Example 115, 8-chloro-6-(((S)-(1-cyclopropyl-1H-1,2,3-triazol-4-yl)(6-fluoropyridin-3-yl)methyl-d)amino)-4-((1-phenylpropyl-2,2,3,3,3-d5)amino)quinoline-3-carbonitrile], the EC50 in test [1] (setting [5]) is 119 nM. Moreover, the half-maximal inhibitory concentration (IC50) in test [2] (setting [6]) amounted to 5 nM.
The matching figures for `[2H][C@@](Nc1cc(Cl)c2ncc(C#N)c(NCC(C)(C)C)c2c1)(c1cn(C2CC2)nn1)c1cccnc1N(C)C` [Example 650, (S)-8-chloro-6-(((1-cyclopropyl-1H-1,2,3-triazol-4-yl)(2-(dimethylamino)pyridin-3-yl)methyl-d)amino)-4-(neopentylamino)quinoline-3-carbonitrile]: 1000 nM and 179 nM.
In the case of `Cc1nc(F)ccc1[C@H](Nc1cc(C#N)c2ncc(C#N)c(NCC(C)(C)C)c2c1)c1cn(C2CC2)nn1` [Example 454, (S)-6-(((1-cyclopropyl-1H-1,2,3-triazol-4-yl)(6-fluoro-2-methylpyridin-3-yl)methyl)amino)-4-(neopentylamino)-quinoline-3,8-dicarbonitrile], in test [1] (setting [5]), the EC50 is 32 nM. The same compound showed an IC50 in test [2] (setting [6]) of 2 nM.
In the same order, the values of `Cc1nc(F)ccc1[C@H](Nc1cc(Cl)c2ncc(C#N)c(NCC(C)(C)C(F)(F)F)c2c1)c1cn(C23CC(C2)C3)nn1` [Example 719, (S)-6-(((1-(bicyclo[1.1.1]pentan-1-yl)-1H-1,2,3-triazol-4-yl)(6-fluoro-2-methylpyridin-3-yl)methyl)amino)-8-chloro-4-((3,3,3-trifluoro-2,2-dimethylpropyl)amino)quinoline-3-carbonitrile] are 24 nM and 2 nM.
For `COc1nccc2c([C@H](Nc3cc(C#N)c4ncc(C#N)c(NCC(C)(C)C)c4c3)c3cn(C4(C(F)F)CC4)nn3)cccc12` [Example 810, (S)-6-(((1-(1-(difluoromethyl)-cyclopropyl)-1H-1,2,3-triazol-4-yl)(1-methoxylsoquinolin-5-yl)methyl)amino)-4-(neopentylamino)quinoline-3,8-dicarbonitrile], the EC50 in test [1] (setting [7]) turned out to be 54 nM. In addition, the IC50 in test [2] (setting [8]) came out at 4 nM.
For `CC(C)(C)CNc1c(C#N)cnc2c(Cl)cc(N[C@@H](c3cccnc3)c3cn(C4(C(F)F)CC4)nn3)cc12` [Example 506, (S)-8-chloro-6-(((1-(1-(difluoromethyl)-cyclopropyl)-1H-1,2,3-triazol-4-yl)(pyridin-3-yl)methyl)amino)-4-(neopentylamino)quinoline-3-carbonitrile], in test [1] (setting [5]), the EC50 came to 528 nM. The compound also registered an IC50 in test [2] (setting [6]) of 8 nM.
Regarding `N#CCCC(Nc1c(C#N)cnc2c(Cl)cc(N[C@@H](c3cn(C4CC4)nn3)c3csc4c3CCN(C3COC3)C4)cc12)c1ccccc1` (some centres unmarked) [Example 83, 8-chloro-4-((3-cyano-1-phenylpropyl)amino)-6-(((RH 1-cyclopropyl-1H-1,2,3-triazol-4-yl)(6-(oxetan-3-yl)-4,5,6,7-tetrahydrothieno[2,3-c]pyridin-3-yl)methyl)amino)-quinoline-3-carbonitrile], in test [1] (read-out: EC50 TNF, LPS-stimulated human monocytes, TNFα), the EC50 came out at 1000 nM. Moreover, in test [2] (read-out: IC50 HTRF, Cot HTRF (TR-FRET) biochemical assay), the IC50 was 942 nM.
As to `Cc1nc(F)ccc1[C@H](Nc1cc(F)c2ncc(C#N)c(NCC(C)(C)C)c2c1)c1cn(C2(C)CC2)nn1` [Example 488, (S)-8-fluoro-6-(((6-fluoro-2-methylpyridin-3-yl)(1-(1-methylcyclopropyl)-1H-1,2,3-triazol-4-yl)methyl)amino)-4-(neopentyl-amino)quinoline-3-carbonitrile], the EC50 in test [1] (setting [5]) came to 79 nM. The compound further had an IC50 in test [2] (setting [6]) of 3 nM.
For the compound `CC(C)(C)CNc1c(C#N)cnc2c(C#N)cc(N[C@H](c3cn(C4(C(F)(F)F)CC4)nn3)c3cccc4cnc(C#N)cc34)cc12` [Example 909, (S)-6-(((3-cyanoisoquinolin-5-yl)(1-(1-(trifluoromethyl)cyclopropyl)-1H-1,2,3-triazol-4-yl)methyl)amino)-4-(neopentylamino)quinoline-3,8-dicarbonitrile], the EC50 in test [1] (setting [3]) was determined as 116 nM. The same compound showed an IC50 in test [2] (setting [4]) of 8 nM.
The matching figures for `COc1cc([C@H](Nc2cc(Cl)c3ncc(C#N)c(NCC(C)(C)C)c3c2)c2cn(C3(C(F)(F)F)CC3)nn2)ccn1` [Example 941, (S)-8-chloro-6-(((2-methoxypyridin-4-yl)(1-(1-(trifluoromethyl)cyclopropyl)-1H-1,2,3-triazol-4-yl)methyl)amino)-4-(neopentylamino)quinoline-3-carbonitrile]: 804 nM and 64 nM.

For the origin of these results see patent US11066414B2, “Cot modulators and methods of use thereof” (Gilead Sciences, Inc., priority 2015, dated 2021).
